In patent US12036237B2, “Bromide source for use in treating autism spectral disorder” (INSERM (INSTITUT NATIONAL DE LA SANTE ET DE LA RECHERCHE …, priority 2016, dated 2024):
“Also recorded” adds a separate entry of the source.

Legend:
[1] = literature statement (Romermann et al, 2017); cited from earlier work
[2] = system: Oprm1−/− mice; assay: Y-maze exploration; conditions: bumetanide 0.5 mg/kg i.p. daily; for rate of same arm returns (cognitive stereotypies): Oprm1−/− mice
[3] = system: Oprm1−/− mice; assay: Marble burying test; conditions: bumetanide 0.5 mg/kg i.p. daily
[4] = system: Oprm1−/− mice; assay: Motor stereotypies scoring; conditions: bumetanide 0.5 mg/kg i.p. daily
[5] = system: Oprm1−/− mice; assay: Direct social interaction test; conditions: Oprm1−/− mice, bumetanide 0.5 mg/kg i.p. daily vs saline
[6] = system: Oprm1−/− mice; assay: Novelty-suppressed feeding test
[7] = system: Oprm1−/− mice; assay: Three-chamber social novelty preference test; conditions: bumetanide 0.5 mg/kg i.p. daily vs saline

CCCCNc1cc(C(=O)O)cc(S(N)(=O)=O)c1Oc1ccccc1 [bumetanide, Bumetanide]
ability to cross the blood brain barrier [1]: inability; also recorded: low ability to cross the blood brain barrier
rate of same arm returns (cognitive stereotypies) [2]: reduced
rate of same arm returns (cognitive stereotypies) ([2]; listed as Bumetanide): reduced cognitive stereotypies; also recorded: similarly reduced
rates of spontaneous alternation and alternate arm returns ([2]; all animals): did not modify
number of marbles buried [3]: did not significantly modify
circling episodes ([4]; Oprm1−/− mice): efficiently suppressed
stereotypic behaviour / motor stereotypies (overall) ([4]; Oprm1−/− mice): efficiently relieved stereotypic behaviour
stereotypic shakes ([4]; Oprm1−/− mice): efficiently suppressed
stereotypic behaviour / motor stereotypies (overall) ([4]; Oprm1−/− mice, listed as Bumetanide): suppressed motor stereotypies
duration of burying episodes ([4]; all mice): no significant effect
number of and time spent in burying episodes ([4]; all mice): increased
number of rearing and grooming episodes ([4]; mutant or wild-type): did not change
number of and time spent in grooming episodes [5]: only effective in reducing the number of grooming episodes
number of grooming episodes following a social contact [5]: only effective in reducing the number of grooming episodes
number of nose contacts [5]: no significant effect
number of, time spent in and duration of paw contacts [5]: no significant effect
social interaction (overall) [5]: only partially restored social interaction
time spent in and duration of nose contacts [5]: increased, but failed to completely rescue
time spent in social contact [5]: increased, but failed to completely rescue
number of and time spent in grooming episodes ([5]; listed as Bumetanide): normalized
number of grooming episodes following a social contact ([5]; listed as Bumetanide): normalized
food intake back in the home cage ([6]; Oprm1 line, bumetanide 0.5 mg/kg i.p. daily): did not modify significantly
feeding latency ([6]; Oprm1−/− mice, bumetanide 0.5 mg/kg i.p. daily): did not modify significantly
behavioural signs of anxiety (overall) ([6]; Oprm1−/− mice, marble burying and novelty-suppressed feeding, bumetanide 0.5 mg/kg): did not show effects
difference (mouse over toy) in number of nose contacts [7]: restored the difference; also recorded: increased
difference (preference for the mouse over the toy) in time spent in compartments [7]: restored the difference; also recorded: successfully restored
duration of close contacts with the living mouse [7]: unable to reverse the deficit; also recorded: failed to restore
time spent in close contacts with the living mouse [7]: unable to reverse the deficit; also recorded: absence of effect
